According to PubChem BioAssay AID1963874 (Molecular Pharmacology Branch, DTP, NCI, 2024):
pIC50: −log10 of the molar value. Several values for one entry are separate records, joined by “and”; a condition that tells them apart may be missing. Equal entries are not always repeated.

Test system: 253994-281-T-J1-PDC KRAS-mutant spheroids with HUVEC/MSC, viability
Experiment: Anticancer human tumor 253994-281-T-J1-PDC patient-derived colorectal carcinoma cell line growth inhibition [KRAS2]
Settings: for viability, T/C: stronger effect = lower value
Summary of the method: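 KRAS-mutant tumor cells were grown as spheroids with HUVEC endothelial cells and human MSCs as stroma. Targeted agents were tested alone and with KRAS pathway inhibitors. Doses started at or near clinical Cmax, or 10 microM, descending half-log.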

[1] = curve of first compound, second compound 0.1 µM
[2] = curve of first compound, second compound 0.316 µM
[3] = curve of first compound, second compound 1 µM
[4] = curve of first compound, second compound 3.16 µM
[5] = curve of first compound, second compound 10 µM
[6] = second compound 0.1 µM, first compound 0.000316 µM
[7] = second compound 0.1 µM, first compound 0.001 µM
[8] = second compound 0.1 µM, first compound 0.00316 µM
[9] = second compound 0.1 µM, first compound 0.01 µM
[10] = second compound 0.1 µM, first compound 0.0316 µM
[11] = second compound 0.1 µM, first compound 0.1 µM
[12] = second compound 0.316 µM, first compound 0.000316 µM
[13] = second compound 0.316 µM, first compound 0.001 µM
[14] = second compound 0.316 µM, first compound 0.00316 µM
[15] = second compound 0.316 µM, first compound 0.01 µM
[16] = second compound 0.316 µM, first compound 0.0316 µM
[17] = second compound 0.316 µM, first compound 0.1 µM
[18] = second compound 1 µM, first compound 0.000316 µM
[19] = second compound 1 µM, first compound 0.001 µM
[20] = second compound 1 µM, first compound 0.00316 µM
[21] = second compound 1 µM, first compound 0.01 µM
[22] = second compound 1 µM, first compound 0.0316 µM
[23] = second compound 1 µM, first compound 0.1 µM
[24] = second compound 3.16 µM, first compound 0.000316 µM
[25] = second compound 3.16 µM, first compound 0.001 µM
[26] = second compound 3.16 µM, first compound 0.00316 µM
[27] = second compound 3.16 µM, first compound 0.01 µM
[28] = second compound 3.16 µM, first compound 0.0316 µM
[29] = second compound 3.16 µM, first compound 0.1 µM
[30] = second compound 10 µM, first compound 0.000316 µM
[31] = second compound 10 µM, first compound 0.001 µM
[32] = second compound 10 µM, first compound 0.00316 µM
[33] = second compound 10 µM, first compound 0.01 µM
[34] = second compound 10 µM, first compound 0.0316 µM
[35] = second compound 10 µM, first compound 0.1 µM
[36] = second compound 0.1 µM, first compound 0.316 µM
[37] = second compound 0.1 µM, first compound 1 µM
[38] = second compound 0.1 µM, first compound 3.16 µM
[39] = second compound 0.1 µM, first compound 10 µM
[40] = second compound 0.316 µM, first compound 0.316 µM
[41] = second compound 0.316 µM, first compound 1 µM
[42] = second compound 0.316 µM, first compound 3.16 µM
[43] = second compound 0.316 µM, first compound 10 µM
[44] = second compound 1 µM, first compound 0.316 µM
[45] = second compound 1 µM, first compound 1 µM
[46] = second compound 1 µM, first compound 3.16 µM
[47] = second compound 1 µM, first compound 10 µM
[48] = second compound 3.16 µM, first compound 0.316 µM
[49] = second compound 3.16 µM, first compound 1 µM
[50] = second compound 3.16 µM, first compound 3.16 µM
[51] = second compound 3.16 µM, first compound 10 µM
[52] = second compound 10 µM, first compound 0.316 µM
[53] = second compound 10 µM, first compound 1 µM
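Further: spheroids exposed to agents for seven days before readout.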
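Wherever viability, T/C is given: percent of DMSO vehicle control viability.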

Cn1ncnc1[C@H]1c2n[nH]c(=O)c3cc(F)cc(c23)N[C@@H]1c1ccc(F)cc1 + C=CC(=O)N1CCN(c2nc(=O)n(-c3c(C)ccnc3C(C)C)c3nc(-c4c(O)cccc4F)c(F)cc23)C(C)C1
pIC50 [1]: < 7.00
pIC50 [2]: < 7.00
pIC50 [3]: < 7.00
pIC50 [4]: < 7.00
pIC50 [5]: < 7.00
viability, T/C [6]: 113%
viability, T/C [7]: 94.8%
viability, T/C [8]: 99.7%
viability, T/C [9]: 102%
viability, T/C [10]: 96.5%
viability, T/C [11]: 92.2%
viability, T/C [12]: 113%
viability, T/C [13]: 102%
viability, T/C [14]: 96.6%
viability, T/C [15]: 101%
viability, T/C [16]: 97.1%
viability, T/C [17]: 92.8%
viability, T/C [18]: 99.9%
viability, T/C [19]: 105%
viability, T/C [20]: 97.9%
viability, T/C [21]: 92.1%
viability, T/C [22]: 114%
viability, T/C [23]: 103%
viability, T/C [24]: 97.7%
viability, T/C [25]: 109%
viability, T/C [26]: 107%
viability, T/C [27]: 89.1%
viability, T/C [28]: 111%
viability, T/C [29]: 99.5%
viability, T/C [30]: 116%
viability, T/C [31]: 106%
viability, T/C [32]: 94.3%
viability, T/C [33]: 96%
viability, T/C [34]: 91.6%
viability, T/C [35]: 96.8%

CC(=O)Nc1cccc(-n2c(=O)n(C3CC3)c(=O)c3c(Nc4ccc(I)cc4F)n(C)c(=O)c(C)c32)c1 + C=CC(=O)N1CCN(c2nc(=O)n(-c3c(C)ccnc3C(C)C)c3nc(-c4c(O)cccc4F)c(F)cc23)C(C)C1
pIC50 [1]: 8.92
pIC50 [2]: 8.99
pIC50 [3]: 8.82
pIC50 [4]: 8.71
pIC50 [5]: 8.97
viability, T/C (second compound 0.1 µM, first compound 0.0001 µM): 106%
viability, T/C [6]: 91.9%
viability, T/C [7]: 47%
viability, T/C [8]: 31.8%
viability, T/C [9]: 18.2%
viability, T/C [10]: 5.7%
viability, T/C (second compound 0.316 µM, first compound 0.0001 µM): 124%
viability, T/C [12]: 77.7%
viability, T/C [13]: 54.3%
viability, T/C [14]: 28.4%
viability, T/C [15]: 17.4%
viability, T/C [16]: 7.2%
viability, T/C (second compound 1 µM, first compound 0.0001 µM): 96.2%
viability, T/C [18]: 91.5%
viability, T/C [19]: 57.7%
viability, T/C [20]: 31.3%
viability, T/C [21]: 15.5%
viability, T/C [22]: 6.85%
viability, T/C (second compound 3.16 µM, first compound 0.0001 µM): 101%
viability, T/C [24]: 91.6%
viability, T/C [25]: 69.2%
viability, T/C [26]: 36.4%
viability, T/C [27]: 16.1%
viability, T/C [28]: 6.84%
viability, T/C (second compound 10 µM, first compound 0.0001 µM): 95.8%
viability, T/C [30]: 84.4%
viability, T/C [31]: 51%
viability, T/C [32]: 22.4%
viability, T/C [33]: 16.2%
viability, T/C [34]: 7.46%

CN(C)C/C=C/C(=O)Nc1cc2c(Nc3ccc(F)c(Cl)c3)ncnc2cc1O[C@H]1CCOC1
viability, T/C (compound 0.000316 µM): 96% [middle of 5 runs]
viability, T/C (compound 0.001 µM): 94.8% [middle of 5 runs]
viability, T/C (compound 0.00316 µM): 89.1% [middle of 5 runs]
viability, T/C (compound 0.01 µM): 84.3% [middle of 5 runs]
viability, T/C (compound 0.0316 µM): 74.8% [middle of 5 runs]
viability, T/C (compound 0.1 µM): 71.7% [middle of 5 runs]
pIC50 (curve of compound): < 7.00

CCN1CCN(Cc2ccc(Nc3ncc(F)c(-c4cc(F)c5nc(C)n(C(C)C)c5c4)n3)nc2)CC1
viability, T/C (compound 0.00316 µM): 101% and 90.3% and 102% (2×)
viability, T/C (compound 0.01 µM): 99.6% [middle of 5 runs]
viability, T/C (compound 0.0316 µM): 89.5% [middle of 5 runs]
viability, T/C (compound 0.1 µM): 84.2% [middle of 5 runs]
viability, T/C (compound 0.316 µM): 77.4% [middle of 5 runs]
viability, T/C (compound 1 µM): 51.2% [middle of 5 runs]
pIC50 (curve of compound): 6.07 and < 6.00 and 6.01

COc1cc2nccc(Oc3ccc(NC(=O)C4(C(=O)Nc5ccc(F)cc5)CC4)cc3)c2cc1OC + C=CC(=O)N1CCN(c2nc(OCC3CCCN3C)nc3c2CCN(c2cccc4cccc(C)c24)C3)CC1CC#N
pIC50 (curve of first compound, second compound 0.0316 µM): < 5.00
pIC50 [1]: < 5.00
pIC50 [2]: < 5.00
pIC50 [3]: 5.15
pIC50 [4]: 6.78
viability, T/C (second compound 0.0316 µM, first compound 0.0316 µM): 88.8%
viability, T/C (second compound 0.0316 µM, first compound 0.1 µM): 104%
viability, T/C (second compound 0.0316 µM, first compound 0.316 µM): 81.8%
viability, T/C (second compound 0.0316 µM, first compound 1 µM): 91.1%
viability, T/C (second compound 0.0316 µM, first compound 3.16 µM): 92.2%
viability, T/C (second compound 0.0316 µM, first compound 10 µM): 69.8%
viability, T/C [10]: 101%
viability, T/C [11]: 101%
viability, T/C [36]: 80.4%
viability, T/C [37]: 79.5%
viability, T/C [38]: 87.6%
viability, T/C [39]: 71.1%
viability, T/C [16]: 97.8%
viability, T/C [17]: 99.5%
viability, T/C [40]: 89.6%
viability, T/C [41]: 97.6%
viability, T/C [42]: 87.5%
viability, T/C [43]: 50.3%
viability, T/C [22]: 97.1%
viability, T/C [23]: 96.5%
viability, T/C [44]: 84.8%
viability, T/C [45]: 92.2%
viability, T/C [46]: 88.9%
viability, T/C [47]: 33.9%
viability, T/C [28]: 62.7%
viability, T/C [29]: 65.5%
viability, T/C [48]: 34.6%
viability, T/C [49]: 20.4%
viability, T/C [50]: 18.9%
viability, T/C [51]: 0.21%

Cn1nccc1Nc1nccc(-c2cc3c(s2)C(C)(C)N(CCN2CCOCC2)C3=O)n1 + COc1cc2nc(C)nc(NC(C)c3cc(N)cc(C(F)(F)F)c3)c2cc1OC1CCOC1
pIC50 [1]: 5.96
pIC50 [2]: 6.07
pIC50 [3]: 6.12
pIC50 [4]: 6.29
pIC50 [5]: 6.47
viability, T/C [10]: 107%
viability, T/C [11]: 89.5%
viability, T/C [36]: 85.2%
viability, T/C [37]: 52.4%
viability, T/C [38]: 24.8%
viability, T/C [39]: 19.6%
viability, T/C [16]: 92%
viability, T/C [17]: 96.6%
viability, T/C [40]: 78%
viability, T/C [41]: 45.9%
viability, T/C [42]: 22.8%
viability, T/C [43]: 19%
viability, T/C [22]: 92.3%
viability, T/C [23]: 92.1%
viability, T/C [44]: 72.9%
viability, T/C [45]: 41.5%
viability, T/C [46]: 27%
viability, T/C [47]: 17.9%
viability, T/C [28]: 96.5%
viability, T/C [29]: 77.5%
viability, T/C [48]: 62%
viability, T/C [49]: 36.9%
viability, T/C [50]: 18.3%
viability, T/C [51]: 14.2%
viability, T/C [34]: 78.7%
viability, T/C [35]: 68.8%
viability, T/C [52]: 54%
viability, T/C [53]: 16.9%
viability, T/C (second compound 10 µM, first compound 3.16 µM): 7.12%
viability, T/C (second compound 10 µM, first compound 10 µM): 2.36%

CCN1CCN(Cc2ccc(Nc3ncc(F)c(-c4cc(F)c5nc(C)n(C(C)C)c5c4)n3)nc2)CC1 + CC1OCC2(CCN(c3cnc(Sc4ccnc(N)c4Cl)c(N)n3)CC2)C1N
pIC50 [1]: 6.15
pIC50 [2]: 6.37
pIC50 [3]: 6.73
pIC50 [4]: 7.29
pIC50 [5]: 7.91
viability, T/C [8]: 93.1%
viability, T/C [9]: 102%
viability, T/C [10]: 87.6%
viability, T/C [11]: 79.9%
viability, T/C [36]: 64.4%
viability, T/C [37]: 44.2%
viability, T/C [14]: 96%
viability, T/C [15]: 90.6%
viability, T/C [16]: 83.7%
viability, T/C [17]: 62.4%
viability, T/C [40]: 62.4%
viability, T/C [41]: 33%
viability, T/C [20]: 77.8%
viability, T/C [21]: 76%
viability, T/C [22]: 72.9%
viability, T/C [23]: 57.7%
viability, T/C [44]: 43.3%
viability, T/C [45]: 32.2%
viability, T/C [26]: 68.2%
viability, T/C [27]: 76.6%
viability, T/C [28]: 47.1%
viability, T/C [29]: 41.9%
viability, T/C [48]: 39%
viability, T/C [49]: 22.8%
viability, T/C [32]: 57%
viability, T/C [33]: 55.9%
viability, T/C [34]: 39.3%
viability, T/C [35]: 33%
viability, T/C [52]: 33%
viability, T/C [53]: 15%
